Each structure is given as a SMILES string. “And” between values parts separate entries of the source, which are not always exact repeats. Equal values may be shown once.

The test system of data set [1] is MCF-7 cells. Nature of the data set: Annexin V-FITC/PI apoptosis flow cytometry, MCF-7. The data set is classed as cell-based, human. As for the experimental part:
MDA-MB-231 and MCF-7 cells (3 × 10^5 cells/well) were seeded into 6-well plates. After that, the cells were treated with 2L (0, 10 μM) for 24 h. Cells were harvested, washed repeatedly with cold phosphate-buffered saline (PBS), and resuspended in 195 μL of binding buffer. Then, 4 μL annexin V-FITC reagent (Beyotime) and 8 μL propidium iodide (PI, Beyotime) were added to the samples and gently mixed. After incubation for 15 min in the dark at room temperature, the stained cells were immediately detected by a FACScan flow cytometer (BD Biosciences, San Jose, CA, USA) and analyzed with the annexin V-FITC/PI apoptosis method.
(In general: Flow cytometry measures light scatter and fluorescence of single cells or particles in a stream.)

The next data set concerns MDA-MB-231 cells. Nature of the data set: DNA content / cell cycle of PI-stained cells by flow cytometry, MDA-MB-231. The data set is classed as cell-based, human. Particulars: MDA-MB-231, 10.0 μM. From the text:
(§1) It is commonly acknowledged that […] DNA fragmentation is a crucial hallmark of cell apoptosis. Next, we assessed the influence of 2L on the DNA content of PI-stained BC cells using flow cytometry. […] In turn, treatment with 2L led to an apparent enhancement of the number of MCF-7 cells, from 51.7% to 63.0%. […] An augmentation of DNA distribution in the SubG1 peak was representative of the occurrence of apoptosis in 2L-exposed groups, which further confirmed that 2L could induce the apoptosis of BC cells. In addition, the quantitative analysis of DNA distribution for the subG1, G0/G1, S, and G2/M phases appeared to show similar alterations (Figure 4B,D).

Data set [2] concerns MCF-7 cells. Nature of the data set: DNA content / cell cycle of PI-stained cells by flow cytometry, MCF-7. The data set is classed as cell-based, human. Particulars: MCF-7, 10.0 μM.
Text: as §1

The test system of data set [3] is apoptosis-related proteins in MCF-7 cells. Briefly: Western blot of apoptosis-related proteins, MCF-7. The data set is classed as cell-based, human. Particulars: MCF-7, 2L 1.1, 3.3, 10 μM, 24 h. Here is the method:
MDA-MB-231 and MCF-7 cells were cultured in a 6-well plate with the density of 3 × 10^5 cells/well and treated with different concentrations of 2L (0, 1.1, 3.3, 10 μM) for 24 h. The cells were lysed in radioimmunoprecipitation assay (RIPA) buffer (Beyotime, Shanghai, China) containing 1% protease inhibitor cocktail and 1 mM phenylmethylsulfonyl fluoride (PMSF, Sigma-Aldrich, St. Louis, MO, USA). After centrifugation, the supernatant was collected and quantified by BCA assay (Beyotime). Lysates were mixed with the loading buffer (5 ×) and denatured by boiling for 10 min. Then, the equivalent samples were separated via 10–15% sodium dodecyl–sulfate polyacrylamide gel electrophoresis (SDS-PAGE), transferred to 0.45 µm immunoblot poly(vinylidene fluoride) (PVDF) membranes (Merck Millipore, Darmstadt, Germany) at 4 °C, and blocked in 5% skimmed milk in TBST for 1 h at room temperature. The membranes were incubated overnight at 4 °C with specific primary antibodies. After washing three times with TBST, the PVDF membranes were incubated with horseradish peroxidase (HRP)-conjugated secondary antibodies at rt for 1 h. Lastly, the resulting bands were visualized by a Bio-Rad ChemiDoc imaging system ([…]) using enhanced chemiluminescence reagents (Millipore, Billerica, MA, USA). The details of the corresponding primary antibodies were as follows: Bax (2772; Cell Signaling Technology), Bcl-2 (3498; Cell Signaling Technology), cleaved caspase-3 (9661; Cell Signaling Technology), cleaved caspase-9 (9505; Cell Signaling Technology), and PARP (9542; Cell Signaling Technology). The HRP-secondary antibodies were also obtained from Cell Signaling Technology (Boston, MA, USA).

For a further data set, the system named is MDA-MB-231 xenograft. Nature of the data set: MDA-MB-231-derived xenograft mouse model. The data set is classed as in vivo. Particulars: for tumor growth inhibition (TGI): intraperitoneal, every other day, 10 treatments, by tumor weight. Here is the method:
BALB/c nude mice (female, 6–7 weeks) were purchased from Changsheng Biotechnology Co., Ltd. (Liaoning, China). MDA-MB-231 cells (5 × 10^6 cells/mouse) were injected subcutaneously into the right back of the nude mice. When the tumor volume reached approximately 55 mm^3, the female mice were randomly divided into two treatment groups (25, 50 mg/kg) and a vehicle group (equal volume of normal saline) with five mice in each group. Throughout the experiment, 2L and saline were intraperitoneally injected every other day for 10 treatments. At the same time, the changes in tumor volume and body weight of the nude mice were tracked and recorded. The tumor volumes were assessed using the formula: V (mm^3) = (length × width^2)/2. At the end of the experimental period, tumor tissues were harvested, weighed, and collected. The TGI rate was calculated by the average tumor weight of the 2L-treated and control groups.

Take `COc1cc(/C=C/c2ccc(OCCCN3CCCCC3)cc2)cc(OC)c1` [Compound 2L, (E)-1-(3-(4-(3,5-dimethoxystyryl)phenoxy)propyl)piperidine]: the “apoptosis ratio with NAC” value in the data set with MCF-7 cells [1] (MCF-7, 2L 10 μM + 5 mM NAC) is given as 6.7%. Also, the “apoptosis ratio with Z-VAD-FMK” value in the data set with MCF-7 cells [1] (MCF-7, 2L 10 μM + Z-VAD-FMK 20 μM) worked out at 6.5%. Besides, in the data set on MCF-7 cells [1] (MCF-7, 2L 10 μM, 24 h), the “apoptotic percentage (early and late)” value was 14.0% and 14.5% and 12.2%. Besides, in the data set with MDA-MB-231 cells, the “percentage of cells in subG1” value was 7.99% and the “proportion of cells in G0/G1 phase” value was 61.7%. Also, in the data set on MCF-7 cells [2], the “percentage of cells in subG1” value came out at 7.83% and the “proportion of cells in G0/G1 phase” value amounted to 63.0%. In addition, in data set [3], the “expression of Bcl-2” value is “markedly downregulated”, the “level of Bax” value is listed as “upregulated”, the “protein expression of cleaved caspase-3” value is “increase” and the “protein expression of cleaved caspase-9” value is recorded as “increase”. In addition, the “protein level of cleaved PARP” value in data set [3] is “effectively elevate”. The “tumor growth inhibition (TGI)” value in the data set on MDA-MB-231 xenograft (25 mg/kg) worked out at 42.0%. Besides, the “tumor growth inhibition (TGI)” value with MDA-MB-231 xenograft (50 mg/kg) was found to be 69.9%. Moreover, the “toxicity in nude mice (body weight fluctuation)” value in the data set on MDA-MB-231 xenograft (25 and 50 mg/kg, whole study) was “no obvious toxicity”. In the data set on MDA-MB-231 xenograft (Western blot, vs control group), the “level of Bcl-2 protein in tumor tissues” value is given as “decreased”, the “protein expression of Bax in tumor tissues” value was “noticeably increased” and the “protein expression of cleaved PARP in tumor tissues” value is reported as “noticeably increased”.

The record behind these values is publication PMC10380385, “Synthesis, In Vitro, and In Vivo Investigations of Pterostilbene-Tethered Analogues as Anti-Breast Cancer Candidates” (International Journal of Molecular Sciences, 2023).
